Key:
Type in all cases: cell-based, mouse
[1] = test system: caspase 8; experiment: Caspase 8 colorimetric assay
Procedure: Caspase 8 and 3 colorimetric assays were performed on the N38 cells at all pH conditions. The assay was based on the detection of the chromophore pNA after cleavage from the labeled substrate IETD-pNA and DEVD-pNA for caspase 8 and 3, respectively. Comparison of the pNA absorbance from the suspected apoptotic sample was compared to the uninduced neutral pH sample. Caspase 8 and 3 were analysed using the Caspase-3 Colorimetric Activity Assay (Chemicon, Temecula USA) and Caspase-8 Colorimetric Activity Assay (Chemicon, Temecula USA). The cells from each pH treatment described previously at 24 and 48 hrs were removed using a cell scraper and centrifuged at 1500 rpm for 10 minutes. The cells were resuspended in 350 μl of chilled cell lysis buffer containing 500 μl PBS, 5 μl 1% Triton ×100 (Sigma, St. Louis), 25 μl proteinase inhibitor cocktail set III (VWR, Mississauga), 0.5 μM dithiothreitol (DTT) (Sigma, St. Louis) and 2.5 μl phenylmethylsulphonylfluoride (PMSF) diluted in 1 mL of methanol (EM Science, Gibbstown), then incubated on ice for 10 min and centrifuged for 5 minutes at 10,000 rpm. The supernatant, consisting of cytosolic extracts, was transferred to a new tube and a bicinchoninic acid (BCA) protein assay (Pierce, Rockford) was conducted to determine total protein concentration. The absorbance of each sample was measured on a SPECTRAmax Microplate spectrophotometer at 405 nm after an incubation period of 2 hours at 37° C. Changes in caspase 3 activity were determined by comparing the absorbance reading from the induced sample with the level of the uninduced control. Background readings from the buffer were subtracted from the reading of both the induced (pH 6.8, 8.0, 8.4) and uninduced (pH 7.4) samples before calculating changes in caspase 3 activity. The same was done for the detection of caspase 8. As a control, N38 cells were cultured with pH 7.4 DMEM and incubated for 4 days, apoptosis was then induced using 10 μM/ml etoposide and lysed according to the above protocol and used a control for all subsequent caspase 3 detection. All assays were performed with 4 replications.

[2] = test system: Akt; experiment: Akt western blot; conditions: all pH treatments; 48 hrs
Procedure: Western blots using Akt and phosphorylated Akt (P-Akt) primary antibodies were conducted on all conditions of the cultured N38 cells to determine whether TCAP was preventing cell death by phosphorylation. The same western blot procedure outlined above was repeated with an Akt primary antibody (Cell Signalling, Beverly) at a titer of 1:500, followed by membrane incubation with anti-rabbit HRP-conjugated secondary antibody (Amersham, Baie d'Urfé) at 1:3000, followed by exposure on Kodak X-OMAT Blue film (Perkin Elmer Canada Inc, Vaudreuil-Dorion) for 30 min. Phospho Akt expression at 48 hrs was determined using the method described above with a PAkt primary antibody (Cell Signalling 9271) at 1:1000 followed by membrane incubation with anti-rabbit HRP-conjugated secondary antibody (Amersham, Baie d'Urfé) at 1:2000 followed by exposure on Kodak X-OMAT Blue film (Perkin Elmer Canada Inc, Vaudreuil-Dorion) overnight. Cultured N38 cells were serum-starved for 48 hours in order to induce phosphorylation and following the same protocol above were loaded as a control. Total optical density of the blots, were quantified using LabWorks 4.0 Image Acquisition and Analysis Software from Ultra-Violet Products Ltd. (UVP).

[3] = test system: N38 cells; experiment: Bromodeoxyuridine (BrdU) incorporation assay; conditions: 24 or 48 hrs; pH extremes
Source text: The evaluation of cell cycle progression is important when assessing the viability of a cell population. The cell cycle is a sequence of stages that a cell passes through between one division and the next. The cell cycle oscillates between mitosis and the interphase, which is divided into G, S, and G 2. In the G phase there is a high rate of biosynthesis and growth; in the S phase there is the doubling of the DNA content as a consequence of chromosome replication; in the G 2 phase the final preparations for cell division (cytokinesis) are made (Raza, 1985). In order to determine whether TCAP was increasing cell cycle efficiency, a bromodeoxyuridine (BrdU) non-isotopic enzyme immunoassay was conducted (Calbiochem, Canada). BrdU incorporation into newly synthesized DNA of actively proliferating cells enables one to quantify cell cycle progression and the population of cells entering the S phase(Gratzner, 1982; Raza, 1985).
N38 cells were grown in a 96-well culture plate using 100 μl at an initial density of 2×10^5 cells/ml. Controls consisted of a blank, one well containing only DMEM with no cells and background, and one well with cells but with no BrdU label added. […] Absorbance was measured on a SPECTRAmax Microplate spectrophotometer at dual wavelengths at 450-540 nm.

[4] = test system: catalase; experiment: Catalase assay on pH treated cells
Procedure: A catalase assay was performed on the pH treated cells in order to determine whether TCAP-1 was conferring survivability to the cells via upregulation of catalase and thus increasing H2O 2 breakdown into H2O and O2 (FIG. 9B). […] Bovine liver was also assayed as a positive control.

## teneurin C-terminus associated peptide [TCAP-1]
[1]; pH 7.4
  relative level of caspase 8 activity, of the etoposide-induced increase: about 70%
[1]; pH 7.4, P<0.001
  caspase 8 activity vs vehicle: increased caspase 8 activity
[1]; pH 8.0
  caspase 8 activity vs vehicle: no significant differences in caspase 8 and 3 activity
[1]; pH 8.4
  caspase 8 activity vs vehicle: no significant differences in caspase 8 and 3 activity
[2]
  endogenous Akt on western blot, vehicle vs TCAP: no difference in endogenous Akt
[3]
  BrdU incorporation: no significant results
[4]; pH 6.8
  catalase levels vs vehicle: no significant effects
[4]; pH 7.4
  catalase levels vs vehicle: no significant effects
[4]; pH 8.0, p<0.01
  catalase levels vs vehicle: significant TCAP-1 effect
[4]; pH 8.4, p<0.001
  catalase levels vs vehicle: significantly increased catalase levels

— patent US20080015147A1, “Method for inhibiting neuronal cell death” (priority 2006, published 2008)
